How the values were obtained:
[1] = biological target: Tyrosine-protein kinase ZAP-70 (Homo sapiens) (UniProt P43403); test: Inhibition of recombinant human full length N-terminal GST-tagged ZAP70 expressed in baculovirus infected Sf9 cells assessed as change in enzyme activity at 1 uM in presence of 2 uM ATP relative to control; design: scale not given: the % may be the effect or the level left
[2] = biological target: Ephrin type-A receptor 3 (Homo sapiens) (UniProt P29320); test: Inhibition of recombinant human N-terminal GST-tagged EPHA3 (571 to end residues) expressed in baculovirus infected Sf9 cells assessed as change in enzyme activity at 1 uM in presence of 2 uM ATP relative to control; design: scale not given: the % may be the effect or the level left
[3] = biological target: Casein kinase I isoform alpha (Homo sapiens) (UniProt P48729); test: Inhibition of recombinant human full length N-terminal GST-tagged CK1alpha1 expressed in baculovirus infected Sf9 cells assessed as change in enzyme activity at 1 uM in presence of 1 uM ATP relative to control; design: scale not given: the % may be the effect or the level left
[4] = biological target: Mast/stem cell growth factor receptor Kit (Homo sapiens) (UniProt P10721); test: Inhibition of recombinant human N-terminal GST-tagged c-KIT (544 to end residues) expressed in baculovirus infected Sf9 cells assessed as change in enzyme activity at 1 uM in presence of 2 uM ATP relative to control; design: scale not given: the % may be the effect or the level left
Mus musculus [5] = test: Ex-vivo inhibition of BTK in C57BL/6J mouse assessed as anti-mouse IgD antibody stimulated BCR mediated CD69 level in whole blood isolated from 100 mg/kg, po bid treated mouse measured after 6 hrs post first dose by flow cytometry relative to control; format: functional; design: scale not given: the % may be the effect or the level left
Mus musculus [6] = test: Antiarthritic activity in DBA/1J mouse type-2 collagen-induced arthritis model assessed as reduction in clinical score immunized with type-2 collagen on day 1 and day 21 followed by LPS challenge on day 28 subsequent compound administration po bid by hematoxylin and eosin staining based assay; format: functional, organism-based
[7] = biological target: Mitogen-activated protein kinase 3 (Homo sapiens) (UniProt P27361); test: Inhibition of recombinant human full length ERK1 assessed as change in enzyme activity at 1 uM in presence of 1 uM ATP relative to control; design: scale not given: the % may be the effect or the level left
Mus musculus [8] = test: Ex-vivo inhibition of BTK in C57BL/6J mouse assessed as anti-mouse IgD antibody stimulated BCR mediated CD69 level in whole blood isolated from 10 mg/kg, po bid treated mouse measured after 2 hrs post first dose by flow cytometry relative to control; format: functional; design: scale not given: the % may be the effect or the level left
[9] = Equilibrium aqueous solubility of the compound at pH 4; format: physicochemical
[10] = biological target: Serine/threonine-protein kinase VRK1 (Homo sapiens) (UniProt Q99986); test: Inhibition of recombinant human full length N-terminal GST-tagged VRK1 expressed in baculovirus infected Sf9 cells assessed as change in enzyme activity at 1 uM in presence of 2 uM ATP relative to control; design: scale not given: the % may be the effect or the level left
[11] = biological target: Tyrosine-protein kinase Lyn (Homo sapiens) (UniProt P07948); test: Inhibition of recombinant human full length N-terminal GST-tagged LYN A expressed in baculovirus infected Sf9 cells assessed as change in enzyme activity at 1 uM in presence of 1 uM ATP relative to control; design: scale not given: the % may be the effect or the level left
[12] = biological target: High affinity nerve growth factor receptor (Homo sapiens) (UniProt P04629); test: Inhibition of recombinant human N-terminal GST-tagged TRKA (440 to end residues) expressed in baculovirus infected Sf9 cells assessed as change in enzyme activity at 1 uM in presence of 2 uM ATP relative to control; design: scale not given: the % may be the effect or the level left
[13] = biological target: Mitogen-activated protein kinase kinase kinase 1 (Homo sapiens) (UniProt Q13233); test: Inhibition of recombinant human N-terminal GST-tagged MEKK1 ([…] residues) expressed in baculovirus infected Sf9 cells assessed as change in enzyme activity at 1 uM in presence of 2 uM ATP relative to control; design: scale not given: the % may be the effect or the level left
Mus musculus [14] = test: Ex-vivo inhibition of BTK in C57BL/6J mouse assessed as anti-mouse IgD antibody stimulated BCR mediated CD69 level in whole blood isolated from 100 mg/kg, po bid treated mouse measured after 2 hrs post first dose by flow cytometry relative to control; format: functional; design: scale not given: the % may be the effect or the level left
Mus musculus [15] = test: Dose normalized AUC (0 to 24 hrs) in mouse at 10 mg/kg, po; format: ADME, organism-based; conditions: in vivo
[16] = biological target: Tyrosine-protein kinase TXK (Homo sapiens) (UniProt P42681); test: Inhibition of recombinant N-terminal GST-tagged TXK (unknown origin) expressed in baculovirus infected Sf9 cells assessed as change in enzyme activity at 1 uM in presence of 2 uM ATP relative to control; design: scale not given: the % may be the effect or the level left
[17] = biological target: Serine/threonine-protein kinase B-raf (Homo sapiens) (UniProt P15056); test: Inhibition of recombinant human full length N-terminal GST-tagged BRAF expressed in baculovirus infected Sf9 cells assessed as change in enzyme activity at 1 uM in presence of 1 uM ATP relative to control; design: scale not given: the % may be the effect or the level left
[18] = Volume of distribution at steady state in mouse at 3 mg/kg, iv; format: ADME, organism-based; conditions: in vivo, read-out: Vdss
[19] = biological target: RAC-alpha serine/threonine-protein kinase (Homo sapiens) (UniProt P31749); test: Inhibition of recombinant human full length N-terminal GST-tagged AKT1 expressed in baculovirus infected Sf9 cells assessed as change in enzyme activity at 1 uM in presence of 2 uM ATP relative to control; design: scale not given: the % may be the effect or the level left
Mus musculus [20] = test: Ex-vivo inhibition of BTK in C57BL/6J mouse assessed as anti-mouse IgD antibody stimulated BCR mediated CD69 level in whole blood isolated from 10 mg/kg, po bid treated mouse measured after 6 hrs post first dose by flow cytometry relative to control; format: functional; design: scale not given: the % may be the effect or the level left
[21] = biological target: Tyrosine-protein kinase JAK1 (Homo sapiens, UniProt P23458); test: Inhibition of JAK1 (unknown origin)
Mus musculus [22] = test: Ex-vivo inhibition of BTK in C57BL/6J mouse assessed as anti-mouse IgD antibody stimulated BCR mediated CD69 level in whole blood isolated from 10 mg/kg, po bid treated mouse measured after 24 hrs post first dose by flow cytometry relative to control; format: functional; design: scale not given: the % may be the effect or the level left
[23] = biological target: Death-associated protein kinase 1 (Homo sapiens) (UniProt P53355); test: Inhibition of recombinant human N-terminal GST-tagged DAPK1 (1 to363 residues) expressed in baculovirus infected Sf9 cells assessed as change in enzyme activity at 1 uM in presence of 1 uM ATP relative to control; design: scale not given: the % may be the effect or the level left
[24] = biological target: Dual specificity mitogen-activated protein kinase kinase 1 (Homo sapiens) (UniProt Q02750); test: Inhibition of recombinant full length N-terminal GST-tagged MEK1 (unknown origin) assessed as change in enzyme activity at 1 uM in presence of 1 uM ATP relative to control; design: scale not given: the % may be the effect or the level left
[25] = biological target: Ribosomal protein S6 kinase (Homo sapiens) (UniProt P51812+Q9UBS0+O75676+Q15349+O75582+P23443+Q9UK32+Q15418); test: Inhibition of recombinant human full length N-terminal GST-tagged p70S6K expressed in baculovirus infected Sf9 cells assessed as change in enzyme activity at 1 uM in presence of 2 uM ATP relative to control; design: scale not given: the % may be the effect or the level left
[26] = Half life in mouse at 3 mg/kg, iv; format: ADME, organism-based; conditions: in vivo
Mus musculus [27] = test: Antiarthritic activity in DBA/1J mouse type-2 collagen-induced arthritis model assessed as reduction in joint histological score immunized with type-2 collagen on day 1 and day 21 followed by LPS challenge on day 28 subsequent compound administration po bid by hematoxylin and eosin staining based assay; format: functional, organism-based

Sequence of Tyrosine-protein kinase Lyn (Homo sapiens) (P07948 2-512 limits assumed): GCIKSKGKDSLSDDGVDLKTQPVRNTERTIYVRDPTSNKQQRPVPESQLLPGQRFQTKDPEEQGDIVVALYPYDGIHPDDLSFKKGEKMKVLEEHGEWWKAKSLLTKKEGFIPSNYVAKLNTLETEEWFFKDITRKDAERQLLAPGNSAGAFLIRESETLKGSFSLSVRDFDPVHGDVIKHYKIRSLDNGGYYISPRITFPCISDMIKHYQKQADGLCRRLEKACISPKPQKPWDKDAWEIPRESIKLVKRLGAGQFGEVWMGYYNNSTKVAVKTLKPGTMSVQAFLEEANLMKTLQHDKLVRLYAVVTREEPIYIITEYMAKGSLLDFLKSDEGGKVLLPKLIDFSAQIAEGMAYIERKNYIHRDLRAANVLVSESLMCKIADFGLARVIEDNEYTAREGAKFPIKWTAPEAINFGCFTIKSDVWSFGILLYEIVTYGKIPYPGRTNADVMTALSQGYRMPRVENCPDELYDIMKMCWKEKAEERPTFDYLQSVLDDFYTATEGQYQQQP
Sequence of Mitogen-activated protein kinase 3 (Homo sapiens) (P27361 whole entry): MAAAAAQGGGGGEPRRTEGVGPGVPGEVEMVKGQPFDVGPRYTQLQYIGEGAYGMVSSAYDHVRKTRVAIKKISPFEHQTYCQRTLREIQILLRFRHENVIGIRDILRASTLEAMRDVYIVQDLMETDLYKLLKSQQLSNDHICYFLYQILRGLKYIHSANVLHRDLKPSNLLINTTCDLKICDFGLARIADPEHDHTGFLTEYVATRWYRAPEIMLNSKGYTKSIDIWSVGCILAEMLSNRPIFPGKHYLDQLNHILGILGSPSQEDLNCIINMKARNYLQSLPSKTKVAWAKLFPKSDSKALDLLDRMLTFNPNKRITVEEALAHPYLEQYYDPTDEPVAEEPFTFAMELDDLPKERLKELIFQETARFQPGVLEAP
Sequence of Mitogen-activated protein kinase kinase kinase 1 (Homo sapiens) (Q13233 whole entry): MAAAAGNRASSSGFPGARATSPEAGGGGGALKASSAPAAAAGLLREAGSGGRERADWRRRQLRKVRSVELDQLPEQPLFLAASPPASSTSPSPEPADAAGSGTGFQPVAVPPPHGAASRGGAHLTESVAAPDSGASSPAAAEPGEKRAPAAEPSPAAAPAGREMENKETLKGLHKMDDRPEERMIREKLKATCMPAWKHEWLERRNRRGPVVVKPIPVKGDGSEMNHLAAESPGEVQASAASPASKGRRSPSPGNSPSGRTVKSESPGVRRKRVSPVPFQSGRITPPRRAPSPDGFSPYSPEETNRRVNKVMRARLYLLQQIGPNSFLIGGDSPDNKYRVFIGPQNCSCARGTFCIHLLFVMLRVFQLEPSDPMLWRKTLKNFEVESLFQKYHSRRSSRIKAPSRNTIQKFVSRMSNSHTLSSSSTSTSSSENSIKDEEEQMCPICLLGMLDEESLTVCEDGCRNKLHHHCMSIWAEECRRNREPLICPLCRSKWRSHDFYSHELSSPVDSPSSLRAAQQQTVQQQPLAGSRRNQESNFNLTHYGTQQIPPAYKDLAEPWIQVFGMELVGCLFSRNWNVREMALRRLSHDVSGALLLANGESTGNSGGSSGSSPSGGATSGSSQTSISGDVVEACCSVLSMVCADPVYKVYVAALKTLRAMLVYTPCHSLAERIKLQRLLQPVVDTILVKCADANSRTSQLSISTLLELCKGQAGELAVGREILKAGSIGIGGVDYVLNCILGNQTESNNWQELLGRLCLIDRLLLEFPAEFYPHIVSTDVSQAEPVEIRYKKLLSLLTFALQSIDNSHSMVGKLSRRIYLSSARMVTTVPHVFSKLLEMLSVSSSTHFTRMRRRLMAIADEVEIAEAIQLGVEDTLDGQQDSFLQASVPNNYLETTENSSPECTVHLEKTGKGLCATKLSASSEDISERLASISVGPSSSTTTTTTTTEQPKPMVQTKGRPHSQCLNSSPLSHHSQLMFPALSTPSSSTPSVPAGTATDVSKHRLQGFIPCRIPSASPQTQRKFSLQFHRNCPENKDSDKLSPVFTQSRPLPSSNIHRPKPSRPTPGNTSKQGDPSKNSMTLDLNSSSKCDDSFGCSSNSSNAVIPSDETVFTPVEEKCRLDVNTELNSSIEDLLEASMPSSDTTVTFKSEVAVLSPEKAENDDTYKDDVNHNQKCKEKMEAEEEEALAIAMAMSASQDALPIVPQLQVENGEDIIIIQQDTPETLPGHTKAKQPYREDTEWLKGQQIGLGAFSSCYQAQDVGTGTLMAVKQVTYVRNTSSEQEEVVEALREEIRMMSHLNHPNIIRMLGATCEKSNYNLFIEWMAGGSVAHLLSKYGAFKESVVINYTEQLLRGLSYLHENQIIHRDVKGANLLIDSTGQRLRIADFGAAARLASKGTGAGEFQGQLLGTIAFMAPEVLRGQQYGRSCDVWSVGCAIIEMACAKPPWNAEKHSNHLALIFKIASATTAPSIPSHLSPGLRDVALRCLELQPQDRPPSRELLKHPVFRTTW
Sequence of Serine/threonine-protein kinase B-raf (Homo sapiens) (P15056 whole entry): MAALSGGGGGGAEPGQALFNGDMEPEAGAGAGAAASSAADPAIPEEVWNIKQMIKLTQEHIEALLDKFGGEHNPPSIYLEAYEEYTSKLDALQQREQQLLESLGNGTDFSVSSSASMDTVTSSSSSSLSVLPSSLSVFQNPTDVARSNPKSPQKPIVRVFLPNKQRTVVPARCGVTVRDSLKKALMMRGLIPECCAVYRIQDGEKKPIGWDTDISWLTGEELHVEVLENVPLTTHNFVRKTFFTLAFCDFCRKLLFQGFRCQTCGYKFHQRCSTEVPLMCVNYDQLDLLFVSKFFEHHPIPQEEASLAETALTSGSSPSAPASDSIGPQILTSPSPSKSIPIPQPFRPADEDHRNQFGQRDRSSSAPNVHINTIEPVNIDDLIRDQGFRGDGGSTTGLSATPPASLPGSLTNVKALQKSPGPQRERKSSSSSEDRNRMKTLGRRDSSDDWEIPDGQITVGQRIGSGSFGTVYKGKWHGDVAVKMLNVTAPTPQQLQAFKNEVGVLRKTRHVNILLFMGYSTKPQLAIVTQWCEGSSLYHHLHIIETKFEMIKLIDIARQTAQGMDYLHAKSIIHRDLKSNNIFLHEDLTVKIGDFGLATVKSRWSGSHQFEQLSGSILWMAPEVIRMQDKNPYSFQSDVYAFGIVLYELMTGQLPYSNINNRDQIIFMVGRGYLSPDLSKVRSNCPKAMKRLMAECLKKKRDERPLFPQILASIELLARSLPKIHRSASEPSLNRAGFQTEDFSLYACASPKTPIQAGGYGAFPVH
Sequence of Serine/threonine-protein kinase VRK1 (Homo sapiens) (Q99986 whole entry): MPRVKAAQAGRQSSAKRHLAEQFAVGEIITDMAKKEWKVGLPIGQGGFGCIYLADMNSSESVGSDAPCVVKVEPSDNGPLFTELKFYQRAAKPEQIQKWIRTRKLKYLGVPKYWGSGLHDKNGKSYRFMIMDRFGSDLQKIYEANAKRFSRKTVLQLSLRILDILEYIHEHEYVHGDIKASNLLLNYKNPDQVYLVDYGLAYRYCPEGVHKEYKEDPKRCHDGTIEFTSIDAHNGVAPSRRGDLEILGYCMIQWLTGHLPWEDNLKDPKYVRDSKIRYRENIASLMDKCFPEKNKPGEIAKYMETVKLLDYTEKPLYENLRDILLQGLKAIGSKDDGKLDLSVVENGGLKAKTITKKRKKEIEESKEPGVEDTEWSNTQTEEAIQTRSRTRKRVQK
Sequence of Tyrosine-protein kinase TXK (Homo sapiens) (P42681 whole entry): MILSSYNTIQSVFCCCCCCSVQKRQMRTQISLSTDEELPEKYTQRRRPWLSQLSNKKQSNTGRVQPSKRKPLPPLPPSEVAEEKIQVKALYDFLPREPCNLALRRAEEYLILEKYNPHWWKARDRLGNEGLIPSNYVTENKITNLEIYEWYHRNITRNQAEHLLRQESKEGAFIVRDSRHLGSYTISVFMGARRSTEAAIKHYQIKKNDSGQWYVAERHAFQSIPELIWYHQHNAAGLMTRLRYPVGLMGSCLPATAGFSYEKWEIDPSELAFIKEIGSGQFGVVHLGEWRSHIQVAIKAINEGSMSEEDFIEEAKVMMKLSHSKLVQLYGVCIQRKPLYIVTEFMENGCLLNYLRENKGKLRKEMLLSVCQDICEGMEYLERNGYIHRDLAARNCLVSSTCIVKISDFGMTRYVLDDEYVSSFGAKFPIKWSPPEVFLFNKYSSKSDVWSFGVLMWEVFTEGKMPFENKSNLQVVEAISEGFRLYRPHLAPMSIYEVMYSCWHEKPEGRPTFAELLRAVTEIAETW
Sequence of RAC-alpha serine/threonine-protein kinase (Homo sapiens) (P31749 whole entry): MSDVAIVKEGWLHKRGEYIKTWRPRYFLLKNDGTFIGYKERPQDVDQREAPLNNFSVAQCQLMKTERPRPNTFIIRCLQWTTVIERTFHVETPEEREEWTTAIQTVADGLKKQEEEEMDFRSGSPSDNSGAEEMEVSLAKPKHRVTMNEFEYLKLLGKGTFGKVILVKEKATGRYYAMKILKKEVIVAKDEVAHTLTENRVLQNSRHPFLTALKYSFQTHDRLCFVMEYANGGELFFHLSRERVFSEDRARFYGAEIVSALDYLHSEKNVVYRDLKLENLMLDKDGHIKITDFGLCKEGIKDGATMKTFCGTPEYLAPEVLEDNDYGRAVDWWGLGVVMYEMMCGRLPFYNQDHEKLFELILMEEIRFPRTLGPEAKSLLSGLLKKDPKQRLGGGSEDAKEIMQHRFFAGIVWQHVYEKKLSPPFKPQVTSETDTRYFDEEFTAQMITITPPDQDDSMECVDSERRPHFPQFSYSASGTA
Sequence of Dual specificity mitogen-activated protein kinase kinase 1 (Homo sapiens) (Q02750 whole entry): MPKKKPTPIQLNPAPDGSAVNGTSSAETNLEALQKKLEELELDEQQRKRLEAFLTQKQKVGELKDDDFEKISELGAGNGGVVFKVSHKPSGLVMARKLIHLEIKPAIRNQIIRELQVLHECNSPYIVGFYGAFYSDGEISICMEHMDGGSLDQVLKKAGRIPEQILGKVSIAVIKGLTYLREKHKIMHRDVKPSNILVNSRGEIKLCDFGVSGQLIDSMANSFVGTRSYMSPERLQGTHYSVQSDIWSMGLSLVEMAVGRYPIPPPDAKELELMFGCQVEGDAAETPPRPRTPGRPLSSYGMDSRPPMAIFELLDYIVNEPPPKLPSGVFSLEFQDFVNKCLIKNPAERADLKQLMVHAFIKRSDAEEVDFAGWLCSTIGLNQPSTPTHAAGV

Row | SMILES | Activity [1] [%] | Activity [2] [%] | Activity [3] [%] | Activity [4] [%] | Activity (Mus musculus [6]) | Activity [7] [%] | solubility thermodynamic [9] [µM] | Activity [10] [%] | Activity [11] [%] | Activity [12] [%] | Activity [13] [%] | AUC/dose (Mus musculus [15]) [µM·h] | Activity [16] [%] | Activity [17] [%] | Vd [18] [L/kg] | Activity [19] [%] | Activity (Mus musculus [20]) [%] | IC50 [21] [µM] | Activity [23] [%] | Activity [24] [%] | also measured
1 | CCN1CCN(Cc2ccc(-c3cc4c(-c5cccc(N6CCOc7cc(C8CC8)cc(F)c7C6=O)c5CO)ccnc4[nH]3)nc2)CC1 | 1 | -2 | -1 | -1 | Dose-dependent effect | 2 | > 2000 | 1 | -12 | -4 | 2 | 27 | -2 | 1 | 1.9 | -15 | 69 | > 10 | 2 | -14 | Activity (Mus musculus [5]): 83%; Activity (Mus musculus [8]): 48%; Activity (Mus musculus [14]): 72%; Activity (Mus musculus [22]): 40%; Activity [25]: 2%; half-life [26]: 5.6 h; Activity (Mus musculus [27]): Dose-dependent effect
2 | O=C1c2c(F)cc(C3CC3)cc2OCCN1c1cccc(-c2ccnc3[nH]c(C4=CCN(C5COC5)CC4)cc23)c1CO | -1 | -3 | 0 | 0 | Dose-dependent effect | 1 | > 2000 | -8 | -2 | -10 | 3 | 25.8 | 1 | -6 | 0.6 | -3 | 44 | > 10 | -1 | -20 | Activity [25]: -28%; half-life [26]: 1.1 h; Activity (Mus musculus [27]): Dose-dependent effect
